Laboratory results: patent publication US9102752B2, “Peptide vaccine for prevention and immunotherapy of dementia of the Alzheimer's type” (United Biomedical, Inc., priority 2013, dated 2015)

Experiments:
[1] = system: anti-Aβ antibodies in sera of vaccinated patients; test: Epitope mapping, competitive binding inhibition EIA with patient sera (10-mer peptides, IC50); parameters: species or system human; Epitope mapping, fine specificity analysis, serum of subject P210: unit not given here; conditions: for Epitope mapping, fine specificity analysis, serum of subject P101: serum 16 wpi of vaccinated patient P101; for Epitope mapping, fine specificity analysis, serum of subject P102: serum 16 wpi of vaccinated patient P102; for Epitope mapping, fine specificity analysis, serum of subject P103: serum 16 wpi of vaccinated patient P103; for Epitope mapping, fine specificity analysis, serum of subject P104: serum 16 wpi of vaccinated patient P104; for Epitope mapping, fine specificity analysis, serum of subject P105: serum 16 wpi of vaccinated patient P105; for Epitope mapping, fine specificity analysis, serum of subject P106: serum 16 wpi of vaccinated patient P106; for Epitope mapping, fine specificity analysis, serum of subject P107: serum 16 wpi of vaccinated patient P107; for Epitope mapping, fine specificity analysis, serum of subject P108: serum 16 wpi of vaccinated patient P108; for Epitope mapping, fine specificity analysis, serum of subject P109: serum 16 wpi of vaccinated patient P109; for Epitope mapping, fine specificity analysis, serum of subject P201: serum 16 wpi of vaccinated patient P201; for Epitope mapping, fine specificity analysis, serum of subject P202: serum 16 wpi of vaccinated patient P202; for Epitope mapping, fine specificity analysis, serum of subject P203: serum 16 wpi of vaccinated patient P203; for Epitope mapping, fine specificity analysis, serum of subject P204: serum 16 wpi of vaccinated patient P204; for Epitope mapping, fine specificity analysis, serum of subject P205: serum 16 wpi of vaccinated patient P205; for Epitope mapping, fine specificity analysis, serum of subject P206: serum 16 wpi of vaccinated patient P206; for Epitope mapping, fine specificity analysis, serum of subject P207: serum 16 wpi of vaccinated patient P207; for Epitope mapping, fine specificity analysis, serum of subject P208: serum 16 wpi of vaccinated patient P208; for Epitope mapping, fine specificity analysis, serum of subject P209: serum 16 wpi of vaccinated patient P209; for Epitope mapping, fine specificity analysis, serum of subject P210: serum 16 wpi of vaccinated patient P210
[2] = system: anti-Aβ antibodies in macaque antisera; test: Specificity analysis (10-mer peptide ELISA) of antisera from Cynomolgus macaques; format: binding
[3] = antisera of macaques given UBI AD Vaccine 150 μg/dose, 9 WPI
[4] = antisera of macaques given UBI AD Vaccine 150 μg/dose, 15 WPI
[5] = antisera of macaques given UBI AD Vaccine 750 μg/dose, 9 WPI
[6] = antisera of macaques given UBI AD Vaccine 750 μg/dose, 15 WPI

Substance	Epitope mapping, fine specificity analysis, serum of subject P101 [1]	Epitope mapping, fine specificity analysis, serum of subject P102 [1]	Epitope mapping, fine specificity analysis, serum of subject P103 [1]	Epitope mapping, fine specificity analysis, serum of subject P104 [1]	Epitope mapping, fine specificity analysis, serum of subject P105 [1]	Epitope mapping, fine specificity analysis, serum of subject P106 [1]	Epitope mapping, fine specificity analysis, serum of subject P107 [1]	Epitope mapping, fine specificity analysis, serum of subject P108 [1]	Epitope mapping, fine specificity analysis, serum of subject P109 [1]	Epitope mapping, fine specificity analysis, serum of subject P201 [1]	Epitope mapping, fine specificity analysis, serum of subject P202 [1]	Epitope mapping, fine specificity analysis, serum of subject P203 [1]	Epitope mapping, fine specificity analysis, serum of subject P204 [1]	Epitope mapping, fine specificity analysis, serum of subject P205 [1]	Epitope mapping, fine specificity analysis, serum of subject P206 [1]	Epitope mapping, fine specificity analysis, serum of subject P207 [1]	Epitope mapping, fine specificity analysis, serum of subject P208 [1]	Epitope mapping, fine specificity analysis, serum of subject P209 [1]	Epitope mapping, fine specificity analysis, serum of subject P210 [1]	Reactivity of antisera with peptide (specificity analysis ELISA) [2, 3]	also measured
8 (TEEISEVKMD; PEPTIDE (1)..(10) Abeta -9-1 or APP 770(T663-D672); listed as Homo sapiens) [compound 8]	0	0	0	0	0	0	0	0	0	0	0	0	0	0	0	0	0	0	0	0.075	Reactivity of antisera with peptide (specificity analysis ELISA) [2, 4]: 0.084; Reactivity of antisera with peptide (specificity analysis ELISA) [2, 5]: 0.061; Reactivity of antisera with peptide (specificity analysis ELISA) [2, 6]: 0.078
9 (EEISEVKMDA; PEPTIDE (1)..(10) Abeta -8-2 or APP 770(E664-A673); listed as Homo sapiens) [compound 9]	0	0	0	0	0	0	0	0	0	0	0	0	0	0	0	0	0	0	0	0.082	Reactivity of antisera with peptide (specificity analysis ELISA) [2, 4]: 0.092; Reactivity of antisera with peptide (specificity analysis ELISA) [2, 5]: 0.081; Reactivity of antisera with peptide (specificity analysis ELISA) [2, 6]: 0.076
10 (EISEVKMDAE; PEPTIDE (1)..(10) Abeta -7-3 or APP 770(E665-E674); listed as Homo sapiens) [compound 10]	0	0	0	0	0	0	0	0	0	0	0	0	0	0	0	0	0	0	0	0.060	Reactivity of antisera with peptide (specificity analysis ELISA) [2, 4]: 0.056; Reactivity of antisera with peptide (specificity analysis ELISA) [2, 5]: 0.064; Reactivity of antisera with peptide (specificity analysis ELISA) [2, 6]: 0.053
11 (ISEVKMDAEF; PEPTIDE (1)..(10) Abeta -6-4 or APP 770(I666-F675); listed as Homo sapiens) [compound 11]	0	0	0	0	0	0	0	0	0	0	0	0	0	0	0	0	0	0	0	0.055	Reactivity of antisera with peptide (specificity analysis ELISA) [2, 4]: 0.058; Reactivity of antisera with peptide (specificity analysis ELISA) [2, 5]: 0.063; Reactivity of antisera with peptide (specificity analysis ELISA) [2, 6]: 0.062
12 (SEVKMDAEFR; PEPTIDE (1)..(10) Abeta -5-5 or APP 770(S667-R676); listed as Homo sapiens) [compound 12]	10	0	0	0	0	0	0	0	0	0	0	0	0	0	0	0	0	0	0	0.056	Reactivity of antisera with peptide (specificity analysis ELISA) [2, 4]: 0.053; Reactivity of antisera with peptide (specificity analysis ELISA) [2, 5]: 0.054; Reactivity of antisera with peptide (specificity analysis ELISA) [2, 6]: 0.050
